# In the NIST ThermoML archive (doi:10.1016/j.fluid.2015.08.007):
# Where “and” joins values, the source holds several entries; their conditions need not be identical. Equal entries are not always repeated. ± gives the expanded uncertainty stated by the source.
# Settings: Crystal 1; DTA
row,Normal melting temperature,Structure (SMILES)
1,204 ± 2 °C,CCCC[N+]1(C)CCCC1.[Br-] [1-butyl-1-methylpyrrolidinium bromide]

# Same assay, conditions: Crystal; DTA
row,Structure (SMILES),Normal melting temperature
1,CCCC[N+]1(C)CCCC1.[Br-] [1-butyl-1-methylpyrrolidinium bromide],204 ± 2 °C
2,CC[N+]1(C)CCCC1.O=S(=O)([N-]S(=O)(=O)C(F)(F)F)C(F)(F)F,91 ± 2 °C
3,CC[N+]1(C)CCCC1.F[B-](F)(F)F [1-ethyl-1-methylpyrrolidinium tetrafluoroborate],66 ± 2 °C

# Next, values leading:
row,Normal melting temperature,Structure (SMILES)
1,152 ± 2 °C and 151 ± 2 °C,CCCC[N+]1(C)CCCC1.F[B-](F)(F)F [1-butyl-1-methylpyrrolidinium tetrafluoroborate]
2,201 ± 2 °C and 204 ± 2 °C,CCCC[N+]1(C)CCCC1.[Cl-] [1-butyl-1-methylpyrrolidinium chloride]
